According to patent publication US12606561B2, “Substituted pyrazolo[1,5-a][1,3,5]triazines as CDK inhibitors” (QURIENT CO., LTD., priority 2018, dated 2026):

Key:
CDK1/Cyclin B = biological target: T1, CDK1/Cyclin B (Homo sapiens, UniProt P06493); assay: Enzymatic assay for CDK1 (LANCE Ultra kinase assay, FRET based); assay type: biochemical; settings: ATP at Km; read-out: CDK1 enzymatic activity IC50
T1 construct: purchased Invitrogen PR4768C
Method in brief: (§1)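 Kinase activity of each purified CDK/cyclin complex was followed in a FRET format where a Europium anti-phospho-antibody recognises phosphorylated ULight-labeled peptide. ATP was held at its Km.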

CDK2/Cyclin A = biological target: T2, CDK2/Cyclin A (Homo sapiens, UniProt P24941); assay: Enzymatic assay for CDK2 (LANCE Ultra kinase assay, FRET based); assay type: biochemical; settings: ATP at Km
T2 construct: purchased Invitrogen PV6290
Method in brief: (§2)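 Inhibition was measured at ATP Km with 68 nM ULight-MBP peptide and CDK2/Cyclin A ([…]) or CDK5/p25 ([…]), using 8-dose 4-fold compound dilutions from DMSO. Kinase reaction ran 60 min at 23° C, then Eu anti-phospho-MBP plus EDTA were added for another 60 min before the fluorescence read.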

CDK5/p25 = biological target: T3, CDK5/p25 (Homo sapiens, UniProt Q00535); assay: Enzymatic assay for CDK5 (LANCE Ultra kinase assay, FRET based); assay type: biochemical; settings: ATP at Km
T3 construct: purchased Invitrogen PR8543B
T3 sequence (Q00535 whole entry): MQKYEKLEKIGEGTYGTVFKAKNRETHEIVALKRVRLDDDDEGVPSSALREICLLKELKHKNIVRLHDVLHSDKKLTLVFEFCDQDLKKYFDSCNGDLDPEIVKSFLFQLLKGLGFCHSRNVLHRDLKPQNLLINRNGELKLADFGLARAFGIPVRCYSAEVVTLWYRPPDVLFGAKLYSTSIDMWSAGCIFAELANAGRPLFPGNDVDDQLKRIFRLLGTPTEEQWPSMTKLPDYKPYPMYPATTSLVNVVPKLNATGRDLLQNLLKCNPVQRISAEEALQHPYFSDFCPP
T3 sequence (Q15078 99-307 partner limits assumed): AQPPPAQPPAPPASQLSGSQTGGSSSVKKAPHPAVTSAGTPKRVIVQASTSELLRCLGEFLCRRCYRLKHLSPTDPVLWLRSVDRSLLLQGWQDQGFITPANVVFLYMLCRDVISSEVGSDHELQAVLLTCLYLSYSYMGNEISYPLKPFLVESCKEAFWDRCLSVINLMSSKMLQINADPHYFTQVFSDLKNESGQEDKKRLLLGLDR
Method in brief: as §2

CDK7/Cyclin H/MNAT1 = biological target: T4, CDK7/Cyclin H/MNAT1 (Homo sapiens, UniProt P50613); assay: Enzymatic assay for CDK7 (LANCE Ultra kinase assay, FRET based); assay type: biochemical; settings: for IC50: ATP at Km
T4 construct: purchased Invitrogen PR6749B
T4 sequence (P50613 whole entry): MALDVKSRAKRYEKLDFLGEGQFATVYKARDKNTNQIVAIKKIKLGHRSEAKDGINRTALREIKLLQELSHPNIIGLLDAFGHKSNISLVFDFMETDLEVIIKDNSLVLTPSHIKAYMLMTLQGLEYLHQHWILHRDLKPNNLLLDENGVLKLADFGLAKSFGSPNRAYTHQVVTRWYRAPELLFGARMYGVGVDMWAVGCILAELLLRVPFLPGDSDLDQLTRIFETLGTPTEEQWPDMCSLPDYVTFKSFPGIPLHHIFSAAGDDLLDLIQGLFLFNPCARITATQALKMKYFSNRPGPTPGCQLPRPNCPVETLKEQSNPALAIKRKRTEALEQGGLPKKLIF
T4 sequence (P51946 whole entry partner): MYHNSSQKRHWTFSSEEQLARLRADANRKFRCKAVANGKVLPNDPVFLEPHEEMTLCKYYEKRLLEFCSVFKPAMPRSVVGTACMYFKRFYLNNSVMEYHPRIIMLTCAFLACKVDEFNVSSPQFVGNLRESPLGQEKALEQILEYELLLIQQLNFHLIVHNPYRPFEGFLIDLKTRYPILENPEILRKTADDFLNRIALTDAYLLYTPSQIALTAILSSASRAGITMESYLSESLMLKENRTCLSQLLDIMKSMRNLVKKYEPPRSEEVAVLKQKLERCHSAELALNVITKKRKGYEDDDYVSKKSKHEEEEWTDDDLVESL
T4 sequence (P51948 whole entry partner): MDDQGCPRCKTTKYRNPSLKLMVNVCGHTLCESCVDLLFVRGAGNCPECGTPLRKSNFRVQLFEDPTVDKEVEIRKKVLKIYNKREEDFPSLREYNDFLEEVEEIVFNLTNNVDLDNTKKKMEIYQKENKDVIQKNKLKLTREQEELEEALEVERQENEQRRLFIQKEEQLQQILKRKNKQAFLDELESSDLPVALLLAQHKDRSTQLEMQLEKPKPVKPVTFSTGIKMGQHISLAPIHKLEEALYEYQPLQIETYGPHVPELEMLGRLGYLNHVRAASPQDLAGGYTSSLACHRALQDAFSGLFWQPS
Method in brief: as §1

A2780 = A2780 viability assay (CellTiter-Glo, 72 hours); assay type: cell-based; settings: Homo sapiens; A2780 cells
Method in brief: (§3)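 Each line was plated at its own density (1×10^4, 5×10^3 and 1×10^3 cells/well for MV4-11, OVCAR-3 and A2780 respectively) in RPMI-1640 with 10% FBS. Treatment with compound, 0.0015 uM to 10 uM and DMSO under 0.1%, lasted 72 h. Surviving cells were quantified by CellTiter-Glo.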

OVCAR-3 = OVCAR-3 viability assay (CellTiter-Glo, 72 hours); assay type: cell-based; settings: Homo sapiens; OVCAR-3 cells
Method in brief: as §3

T1 sequence (P06493 whole entry): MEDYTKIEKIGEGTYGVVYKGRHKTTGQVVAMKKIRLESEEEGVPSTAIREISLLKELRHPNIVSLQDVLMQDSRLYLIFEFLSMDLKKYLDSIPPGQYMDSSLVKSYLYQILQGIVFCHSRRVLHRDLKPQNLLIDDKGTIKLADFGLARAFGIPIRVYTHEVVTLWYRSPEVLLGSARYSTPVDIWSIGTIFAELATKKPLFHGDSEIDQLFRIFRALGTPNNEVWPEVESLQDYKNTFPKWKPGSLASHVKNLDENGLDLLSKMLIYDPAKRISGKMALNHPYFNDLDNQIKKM
T1 sequence (P14635 whole entry partner): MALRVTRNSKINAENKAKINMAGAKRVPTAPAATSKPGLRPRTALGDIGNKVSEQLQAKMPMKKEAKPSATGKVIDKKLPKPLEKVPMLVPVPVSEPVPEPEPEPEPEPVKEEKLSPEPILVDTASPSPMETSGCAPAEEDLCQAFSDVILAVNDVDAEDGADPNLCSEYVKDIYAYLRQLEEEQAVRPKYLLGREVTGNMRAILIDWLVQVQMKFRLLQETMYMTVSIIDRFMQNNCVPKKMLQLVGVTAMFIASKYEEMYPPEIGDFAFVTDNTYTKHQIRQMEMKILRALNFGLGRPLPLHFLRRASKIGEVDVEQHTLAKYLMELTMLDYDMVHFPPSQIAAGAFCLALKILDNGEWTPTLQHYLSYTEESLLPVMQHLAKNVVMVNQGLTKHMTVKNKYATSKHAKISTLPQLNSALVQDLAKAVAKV

Row | SMILES | IC50 (CDK1/Cyclin B) [nM] | IC50 (CDK2/Cyclin A) [nM] | IC50 (CDK5/p25) [nM] | IC50 (CDK7/Cyclin H/MNAT1) [nM] | CDK1/CDK7: Selectivity of CDK7 inhibition over CDK1 inhibition (CDK7/Cyclin H/MNAT1) | CDK2/CDK7: Selectivity of CDK7 inhibition over CDK2 inhibition (CDK7/Cyclin H/MNAT1) | CDK5/CDK7: Selectivity of CDK7 inhibition over CDK5 inhibition (CDK7/Cyclin H/MNAT1) | IC50 (A2780) [nM] | IC50 (OVCAR-3) [nM]
1 | C=C(F)C(=O)Nc1ccc2c(-c3ccccc3CNc3nc(NC[C@H]4CNC[C@@H]4O)nc4c(C(C)C)cnn34)nccc2c1 [Compound 83] | > 1000 | > 1000 | > 1000 | < 100 | A (A indicates [fold] > 500) | A (A indicates [fold] > 500) | A (A indicates [fold] > 500) | < 1000 | < 1000
2 | C=C(F)C(=O)Nc1ccc2c(-c3ccccc3CNc3nc(N[C@H]4CN5CCC4CC5)nc4c(C(C)C)cnn34)nccc2c1 [Compound 176] | > 1000 | > 1000 | > 1000 | < 100 | A (A indicates [fold] > 500) | A (A indicates [fold] > 500) | A (A indicates [fold] > 500) | < 1000 | < 1000
3 | C=CC(=O)Nc1ccc2c(-c3ccccc3CNc3nc(NC4CCC(C)(C)NC4)nc4c(C(C)C)cnn34)nccc2c1 (stereo not drawn) [Compound 178] | > 1000 | > 1000 | > 1000 | < 100 | A (A indicates [fold] > 500) | A (A indicates [fold] > 500) | A (A indicates [fold] > 500) | < 1000 | < 1000
4 | C=CC(=O)Nc1ccc2c(-c3ccccc3CNc3cc(N4CCC5(CC4)OCCO5)nc4c(C(C)C)cnn34)nccc2c1 [Compound 118] | > 1000 | > 1000 | > 1000 | < 100 | A (A indicates [fold] > 500) | A (A indicates [fold] > 500) | A (A indicates [fold] > 500) | < 1000 | < 1000
5 | C=CC(=O)Nc1ccc2c(-c3ccccc3CNc3nc(N[C@H]4CC[C@H](OC)CC4)nc4c(C(C)C)cnn34)nccc2c1 [Compound 95] | > 1000 | > 1000 | > 1000 | < 100 | A (A indicates [fold] > 500) | A (A indicates [fold] > 500) | A (A indicates [fold] > 500) | < 1000 | < 1000
6 | C=CC(=O)Nc1ccc2c(-c3ccccc3CNc3nc(N4C5CCC4CC(O)C5)nc4c(C(C)C)cnn34)nccc2c1 (stereo not drawn) [Compound 114] | > 1000 | > 1000 | > 1000 | < 100 | A (A indicates [fold] > 500) | A (A indicates [fold] > 500) | A (A indicates [fold] > 500) | 1000 to 10000 | < 1000
7 | C=CC(=O)Nc1ccc2c(-c3ccccc3CNc3nc(Oc4cccnc4)nc4c(C(C)C)cnn34)nccc2c1 [Compound 182] | > 1000 | > 1000 | > 1000 | 100 to 1000 | B (B indicates 50 < [fold] ≤ 500) | B (B indicates 50 < [fold] ≤ 500) | B (B indicates 50 < [fold] ≤ 500) | < 1000 | 1000 to 10000
8 | CC(C)c1cnn2c(NCc3ccccc3-c3nccc4cc(NC(=O)/C=C/CN(C)C)ccc34)nc(N3CCC(S(=O)(=O)N(C)C)CC3)nc12 [Compound 126] | > 1000 | > 1000 | > 1000 | 100 to 1000 | B (B indicates 50 < [fold] ≤ 500) | B (B indicates 50 < [fold] ≤ 500) | B (B indicates 50 < [fold] ≤ 500) | < 1000 | < 1000
9 | CC(C)c1cnn2c(NCc3ccccc3-c3nccc4cc(NC(=O)/C=C/CN(C)C)ccc34)nc(NC3CCC(F)(F)CC3)nc12 [Compound 147] | > 1000 | > 1000 | > 1000 | < 100 | A (A indicates [fold] > 500) | A (A indicates [fold] > 500) | A (A indicates [fold] > 500) | < 1000 | < 1000
10 | C=C(F)C(=O)Nc1ccc2c(-c3ccccc3CNc3cc(NC4CCC(OC)CC4)nc4c(C(C)C)cnn34)nccc2c1 (stereo not drawn) [Compound 81] | > 1000 | > 1000 | > 1000 | 100 to 1000 | B (B indicates 50 < [fold] ≤ 500) | B (B indicates 50 < [fold] ≤ 500) | B (B indicates 50 < [fold] ≤ 500) | < 1000 | < 1000
11 | C=C(F)C(=O)Nc1ccc2c(-c3ccccc3CNc3nc(N[C@H]4CCC(C)(C)NC4)nc4c(C(C)C)cnn34)nccc2c1 [Compound 171] | > 1000 | > 1000 | > 1000 | < 100 | A (A indicates [fold] > 500) | A (A indicates [fold] > 500) | A (A indicates [fold] > 500) | < 1000 | < 1000

Other lines, results leading:

Row | IC50 (CDK1/Cyclin B) [nM] | IC50 (CDK2/Cyclin A) [nM] | IC50 (CDK5/p25) [nM] | IC50 (CDK7/Cyclin H/MNAT1) [nM] | CDK1/CDK7: Selectivity of CDK7 inhibition over CDK1 inhibition (CDK7/Cyclin H/MNAT1) | CDK2/CDK7: Selectivity of CDK7 inhibition over CDK2 inhibition (CDK7/Cyclin H/MNAT1) | CDK5/CDK7: Selectivity of CDK7 inhibition over CDK5 inhibition (CDK7/Cyclin H/MNAT1) | IC50 (A2780) [nM] | IC50 (OVCAR-3) [nM] | SMILES
12 | > 1000 | > 1000 | > 1000 | 100 to 1000 | B (B indicates 50 < [fold] ≤ 500) | B (B indicates 50 < [fold] ≤ 500) | B (B indicates 50 < [fold] ≤ 500) | < 1000 | < 1000 | C=C(F)C(=O)Nc1ccc2c(-c3ccccc3CNc3nc(NC4CCC(OC)C4)nc4c(C(C)C)cnn34)nccc2c1 (single isomer, unassigned) [Compound 97]
13 | > 1000 | > 1000 | > 1000 | > 1000 | C (C indicates [fold] ≤ 50) | C (C indicates [fold] ≤ 50) | C (C indicates [fold] ≤ 50) | 1000 to 10000 | < 1000 | C=C(F)C(=O)Nc1ccc2c(-c3ccccc3CNc3nc(N4CCC(OC(F)(F)F)CC4)nc4c(C(C)C)cnn34)nccc2c1 [Compound 86]
14 | > 1000 | > 1000 | > 1000 | 100 to 1000 | B (B indicates 50 < [fold] ≤ 500) | B (B indicates 50 < [fold] ≤ 500) | B (B indicates 50 < [fold] ≤ 500) | < 1000 | < 1000 | CC(C)c1cnn2c(NCc3ccccc3-c3nccc4cc(NC(=O)/C=C/CN(C)C)ccc34)nc(N3CC4COCC4C3)nc12 (stereo not drawn) [Compound 104]
15 | > 1000 | > 1000 | > 1000 | < 100 | A (A indicates [fold] > 500) | A (A indicates [fold] > 500) | A (A indicates [fold] > 500) | < 1000 | < 1000 | C=C(F)C(=O)Nc1ccc2c(-c3ccccc3CNc3nc(NCC4CCNCC4O)nc4c(C(C)C)cnn34)nccc2c1 (stereo not drawn) [Compound 160]
16 | > 1000 | > 1000 | > 1000 | < 100 | A (A indicates [fold] > 500) | A (A indicates [fold] > 500) | A (A indicates [fold] > 500) | < 1000 | < 1000 | C=C(F)C(=O)Nc1ccc2c(-c3ccccc3CNc3cc(NCC4CNCCO4)nc4c(C(C)C)cnn34)nccc2c1 (stereo not drawn) [Compound 94]
17 | > 1000 | > 1000 | > 1000 | < 100 | A (A indicates [fold] > 500) | A (A indicates [fold] > 500) | A (A indicates [fold] > 500) | < 1000 | < 1000 | C=C(F)C(=O)Nc1ccc2c(-c3ccccc3CNc3nc(NC[C@H]4CCN(C)C[C@@H]4O)nc4c(C(C)C)cnn34)nccc2c1 [Compound 164]
